Consider 16 compounds from PMC7767506, “Synthesis and Characterization of Store-Operated Calcium Entry Inhibitors Active in the Submicromolar Range” (International Journal of Molecular Sciences, 2020).

Read-outs that look alike come from different tables or passages of the source.

The test system of test [1] is Jurkat cell SOCE. The test can be described thus: Thapsigargin-induced SOCE in Jurkat cells, Indo-1 [Ca2+]cyt measurement. Format: cell-based, human. To be noted: for Ki: 1 µM thapsigargin 10 min, compound added 30 s prior to 1 mM CaCl2. How it is done: To visualize SOCE, we performed a classical protocol: Jurkat cells in Ca^2+-free HBS medium are stimulated by 1 µM thapsigargin (TG, black arrow, Figure 2A) during 600 s to allow the release of Ca^2+ ions by the ER, and the subsequent opening of the store-operated Ca^2+ channels (SOCC). Addition of 1 mM CaCl2 allowed for a massive entry of Ca^2+ ions through SOCC leading thus to an increase of the cytosolic calcium concentration ([Ca^2+]cyt). To test 2-APB and its analogues, different concentrations of compounds were added 30 s prior to Ca^2+ addition.
[Ca^2+]cyt was recorded by a fluorimetric ratio technique as previously described. Leukocytes were spun and resuspended at a density of 10^6 cells/mL in Hepes buffered saline (HBS; 135 mM NaCl, 5.9 mM KCl, 1.2 mM MgCl2, 11.6 mM Hepes, 11.5 mM glucose adjusted to pH 7.3 with NaOH). Due to the presence of 0.002% Ca^2+ in the NaCl, this HBS medium contained 0.1 mM of Ca^2+. Then, cells were incubated in the dark with 4 μM Indo-1-AM for one hour at room temperature under slow agitation. Cells were then centrifuged and resuspended in HBS medium before measurement. To perform the experiments, 0.5 to 1 × 10^6 cells were suspended in 2 mL HBS in a quartz cuvette and inserted into a spectrofluorophotometer (RF-1501 Shimadzu Corporation, Kyoto, Japan) connected to a PC computer (Dell Computer Corp., Montpellier, France). A temperature of 37°C was maintained by circulating water from a bath. Ultraviolet light of 360 nm was used for excitation of Indo-1, and emissions at 405 and 480 nm were recorded. Background and autofluorescence of the cell suspension were subtracted from the recordings. The maximum Indo-1 fluorescence (Rmax) was obtained by adding 1 µM ionomycin to the cell suspension in the presence of 10 mM extracellular CaCl2. Minimum fluorescence was determined following the depletion of external Ca^2+ with 5 mM EGTA.
To visualize the SOCE, cells were placed into the quartz cuvette and 0.5 EGTA was added just before the beginning of the recordings. To induce the SOCE, the cells were treated with 1 μM thapsigargin (TG) during 10 min in Ca^2+-free HBS to induce Ca^2+ release from the ER and the opening of SOCE channels. Then, 1 mM CaCl2 was added to measure the change in [Ca^2+]cyt subsequently to Ca^2+ influx. In the dose-response experiments, different concentrations of 2-APB and its analogs were added 30 s prior to Ca^2+ readdition.

In test [2] the test system is ER Ca2+ stores of L15 fibroblasts. The test can be described thus: Basal Ca2+ leak from ER stores, unidirectional 45Ca2+ flux in permeabilized L15 fibroblasts. It counts as cell-based. Here is the method:
(§1) Measurements of SERCA-mediated ^45Ca^2+ store loading and IP3-dependent release from the ER Ca^2+ store were performed on permeabilized cells in unidirectional conditions. As this approach required the use of cells forming strongly adherent monolayers, we used L15 fibroblasts stably overexpressing IP3R1, similarly to our previous work.
The L15 fibroblasts stably overexpressing IP3R1 were seeded in gelatin-coated 12-well plates (Greiner, Frickenhausen, Germany) at a density of 60,000 cells per well. Unidirectional ^45Ca^2+ flux experiments on confluent cell monolayers were performed at 30 °C after membrane permeabilization with saponin (40 µg/mL), exactly as previously described. After permeabilization, the non-mitochondrial Ca^2+ stores were loaded for 45 min in 120 mM KCl, 30 mM imidazole–HCl (pH 6.8), 5 mM MgCl2, 5 mM ATP, 0.44 mM EGTA, 10 mM NaN3, and 150 nM free ^45Ca^2+ (28 µCi mL^−1). Subsequently, efflux was initiated by incubation in efflux medium (120 mM KCl, 1 mM EGTA, 10 µM TG and 30 mM imidazole–HCl pH 6.8). […] The exact amount of Ca^2+ at each time point is calculated by summing in retrograde order the amount of radioactivity remaining in the cells at the end of the efflux and the radioactivity collected during the successive time intervals. […] These various parameters were measured both in control conditions or in the presence of various 2-APB analogs as indicated. […]

Another test concerns the target SERCA (Mus musculus, UniProt O55143). As to the kind of experiment: SERCA-mediated 45Ca2+ store loading in permeabilized L15 fibroblasts. It counts as cell-based. To be noted: 100 µM; read-out: change of SERCA activity. How it is done: as §1
(§2) The L15 fibroblasts stably overexpressing IP3R1 were seeded in gelatin-coated 12-well plates (Greiner, Frickenhausen, Germany) at a density of 60,000 cells per well. Unidirectional ^45Ca^2+ flux experiments on confluent cell monolayers were performed at 30 °C after membrane permeabilization with saponin (40 µg/mL), exactly as previously described. After permeabilization, the non-mitochondrial Ca^2+ stores were loaded for 45 min in 120 mM KCl, 30 mM imidazole–HCl (pH 6.8), 5 mM MgCl2, 5 mM ATP, 0.44 mM EGTA, 10 mM NaN3, and 150 nM free ^45Ca^2+ (28 µCi mL^−1). Subsequently, efflux was initiated by incubation in efflux medium (120 mM KCl, 1 mM EGTA, 10 µM TG and 30 mM imidazole–HCl pH 6.8). The latter medium was replaced every two minutes for 18 minutes. The exact amount of Ca^2+ at each time point is calculated by summing in retrograde order the amount of radioactivity remaining in the cells at the end of the efflux and the radioactivity collected during the successive time intervals. This allows to calculate the steady-state content of the ER Ca^2+ stores (indicative for the SERCA activity, after subtraction of the loading achieved in the presence of 2 µM TG) the basal leak rate of Ca^2+ out of the stores and the IP3-induced Ca^2+ release after addition of IP3 (0.7 µM). These various parameters were measured both in control conditions or in the presence of various 2-APB analogs as indicated. To assess the effect of the 2-APB analogs on the SERCA-mediated loading of the ER Ca^2+ stores, the analogs were added during the ^45Ca^2+-loading phase as described previously. Obviously, compounds that strongly stimulated the basal Ca^2+ leak out of the stores (as P8) could not be investigated for their effect on SERCA activity (as Ca^2+ loading was already compromised by the increased leak) or on IP3-induced Ca^2+ release (as the decreased luminal Ca^2+ level impacted both the driving force for Ca^2+ release and the sensitivity of the IP3R).

The next test concerns the target T1, IP3R1 (Mus musculus, UniProt P11881).
T1 construct: expressed in transfected cells; host or cells: L15 fibroblast cell line (gift of Katsuhiko Mikoshiba), saponin-permeabilized
The test can be described thus: IP3-induced Ca2+ release (IICR) in permeabilized L15 fibroblasts overexpressing IP3R1. It counts as cell-based. To be noted: permeabilized L15 fibroblasts. How it is done:
as §1
as §2, with “Obviously, compounds that strongly stimulated the basal Ca^2+ leak out of the stores (as P8) could not be investigated for their effect on SERCA activity (as Ca^2+ loading was already compromised by the increased leak) or on IP3-induced Ca^2+ release (as the decreased luminal Ca^2+ level impacted both the driving force for Ca^2+ release and the sensitivity of the IP3R).” left out

For test [3], the system named is Jurkat cell SOCE. To be noted: leukocyte SOCE; cited from earlier work.
The mark [4] stands for this setting: Jurkat cells, read-out: Ki (µM), inhibition constant on SOCE.
[5] abbreviates: Jurkat cells, read-out: Ki (nM), inhibition constant on SOCE.

T1 sequence (P11881 whole entry): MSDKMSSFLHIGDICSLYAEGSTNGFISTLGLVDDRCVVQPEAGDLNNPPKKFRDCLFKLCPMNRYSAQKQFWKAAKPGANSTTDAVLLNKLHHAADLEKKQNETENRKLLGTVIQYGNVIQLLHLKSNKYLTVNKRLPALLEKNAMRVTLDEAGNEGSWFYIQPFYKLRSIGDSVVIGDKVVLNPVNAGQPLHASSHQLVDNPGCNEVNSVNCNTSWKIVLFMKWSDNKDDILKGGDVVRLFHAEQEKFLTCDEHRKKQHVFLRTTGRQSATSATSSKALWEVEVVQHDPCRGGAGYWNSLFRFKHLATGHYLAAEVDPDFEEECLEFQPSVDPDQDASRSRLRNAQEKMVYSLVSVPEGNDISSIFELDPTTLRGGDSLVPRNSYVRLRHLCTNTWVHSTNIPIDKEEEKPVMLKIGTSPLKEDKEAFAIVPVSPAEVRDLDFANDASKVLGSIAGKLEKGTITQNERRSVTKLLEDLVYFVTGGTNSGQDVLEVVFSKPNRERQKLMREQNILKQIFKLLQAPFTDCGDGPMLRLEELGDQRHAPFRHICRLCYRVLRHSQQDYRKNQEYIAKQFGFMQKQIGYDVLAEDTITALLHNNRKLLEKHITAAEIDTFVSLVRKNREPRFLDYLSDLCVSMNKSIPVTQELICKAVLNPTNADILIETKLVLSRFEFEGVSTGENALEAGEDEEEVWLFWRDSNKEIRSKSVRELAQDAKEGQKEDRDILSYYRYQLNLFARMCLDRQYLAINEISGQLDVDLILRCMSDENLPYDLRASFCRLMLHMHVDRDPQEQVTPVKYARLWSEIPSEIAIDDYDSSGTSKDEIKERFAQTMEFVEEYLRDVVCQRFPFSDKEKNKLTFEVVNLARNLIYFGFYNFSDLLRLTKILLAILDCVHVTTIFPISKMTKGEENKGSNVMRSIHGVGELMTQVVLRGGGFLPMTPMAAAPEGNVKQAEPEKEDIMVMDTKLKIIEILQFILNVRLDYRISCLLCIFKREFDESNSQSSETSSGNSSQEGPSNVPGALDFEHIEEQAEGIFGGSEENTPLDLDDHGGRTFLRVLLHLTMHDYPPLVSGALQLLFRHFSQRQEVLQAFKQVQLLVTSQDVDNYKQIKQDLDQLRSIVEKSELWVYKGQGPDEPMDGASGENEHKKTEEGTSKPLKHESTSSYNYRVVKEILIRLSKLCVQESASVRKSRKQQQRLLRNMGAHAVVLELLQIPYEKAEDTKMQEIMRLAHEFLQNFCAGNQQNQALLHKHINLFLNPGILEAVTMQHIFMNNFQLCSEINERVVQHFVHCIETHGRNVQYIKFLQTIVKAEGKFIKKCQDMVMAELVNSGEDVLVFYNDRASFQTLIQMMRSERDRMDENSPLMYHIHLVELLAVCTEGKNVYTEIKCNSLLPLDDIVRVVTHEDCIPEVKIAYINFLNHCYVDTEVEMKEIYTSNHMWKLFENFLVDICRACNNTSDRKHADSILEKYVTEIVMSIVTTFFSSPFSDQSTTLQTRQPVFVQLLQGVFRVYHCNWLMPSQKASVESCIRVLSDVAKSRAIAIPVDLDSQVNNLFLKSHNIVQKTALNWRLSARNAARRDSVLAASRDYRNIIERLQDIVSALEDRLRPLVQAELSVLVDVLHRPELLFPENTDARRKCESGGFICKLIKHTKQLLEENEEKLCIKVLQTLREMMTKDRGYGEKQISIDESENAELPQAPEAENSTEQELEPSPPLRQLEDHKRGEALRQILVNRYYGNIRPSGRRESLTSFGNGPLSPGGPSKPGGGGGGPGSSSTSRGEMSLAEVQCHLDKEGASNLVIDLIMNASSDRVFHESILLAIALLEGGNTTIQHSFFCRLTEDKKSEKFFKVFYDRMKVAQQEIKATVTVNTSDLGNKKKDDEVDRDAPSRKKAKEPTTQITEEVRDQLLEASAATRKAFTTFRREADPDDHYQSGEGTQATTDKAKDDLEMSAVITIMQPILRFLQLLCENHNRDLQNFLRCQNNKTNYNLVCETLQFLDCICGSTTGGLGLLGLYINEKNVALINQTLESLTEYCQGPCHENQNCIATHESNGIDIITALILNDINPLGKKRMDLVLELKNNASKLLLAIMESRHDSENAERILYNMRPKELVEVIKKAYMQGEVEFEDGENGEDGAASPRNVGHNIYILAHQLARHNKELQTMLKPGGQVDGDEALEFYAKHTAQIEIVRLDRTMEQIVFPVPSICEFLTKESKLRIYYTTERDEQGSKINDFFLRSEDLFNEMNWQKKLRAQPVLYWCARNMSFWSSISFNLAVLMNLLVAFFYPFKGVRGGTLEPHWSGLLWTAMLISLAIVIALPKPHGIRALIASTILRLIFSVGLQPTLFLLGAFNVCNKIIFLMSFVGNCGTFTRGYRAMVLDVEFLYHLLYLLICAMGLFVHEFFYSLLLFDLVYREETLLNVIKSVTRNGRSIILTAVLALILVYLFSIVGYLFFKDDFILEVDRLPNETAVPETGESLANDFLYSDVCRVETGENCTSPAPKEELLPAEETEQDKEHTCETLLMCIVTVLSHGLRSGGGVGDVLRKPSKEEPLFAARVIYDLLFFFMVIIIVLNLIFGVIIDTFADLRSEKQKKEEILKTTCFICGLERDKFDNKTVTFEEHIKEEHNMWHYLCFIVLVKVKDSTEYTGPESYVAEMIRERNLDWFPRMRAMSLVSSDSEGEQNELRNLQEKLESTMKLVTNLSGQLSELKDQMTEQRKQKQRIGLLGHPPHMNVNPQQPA
Sequence of SERCA (O55143 whole entry): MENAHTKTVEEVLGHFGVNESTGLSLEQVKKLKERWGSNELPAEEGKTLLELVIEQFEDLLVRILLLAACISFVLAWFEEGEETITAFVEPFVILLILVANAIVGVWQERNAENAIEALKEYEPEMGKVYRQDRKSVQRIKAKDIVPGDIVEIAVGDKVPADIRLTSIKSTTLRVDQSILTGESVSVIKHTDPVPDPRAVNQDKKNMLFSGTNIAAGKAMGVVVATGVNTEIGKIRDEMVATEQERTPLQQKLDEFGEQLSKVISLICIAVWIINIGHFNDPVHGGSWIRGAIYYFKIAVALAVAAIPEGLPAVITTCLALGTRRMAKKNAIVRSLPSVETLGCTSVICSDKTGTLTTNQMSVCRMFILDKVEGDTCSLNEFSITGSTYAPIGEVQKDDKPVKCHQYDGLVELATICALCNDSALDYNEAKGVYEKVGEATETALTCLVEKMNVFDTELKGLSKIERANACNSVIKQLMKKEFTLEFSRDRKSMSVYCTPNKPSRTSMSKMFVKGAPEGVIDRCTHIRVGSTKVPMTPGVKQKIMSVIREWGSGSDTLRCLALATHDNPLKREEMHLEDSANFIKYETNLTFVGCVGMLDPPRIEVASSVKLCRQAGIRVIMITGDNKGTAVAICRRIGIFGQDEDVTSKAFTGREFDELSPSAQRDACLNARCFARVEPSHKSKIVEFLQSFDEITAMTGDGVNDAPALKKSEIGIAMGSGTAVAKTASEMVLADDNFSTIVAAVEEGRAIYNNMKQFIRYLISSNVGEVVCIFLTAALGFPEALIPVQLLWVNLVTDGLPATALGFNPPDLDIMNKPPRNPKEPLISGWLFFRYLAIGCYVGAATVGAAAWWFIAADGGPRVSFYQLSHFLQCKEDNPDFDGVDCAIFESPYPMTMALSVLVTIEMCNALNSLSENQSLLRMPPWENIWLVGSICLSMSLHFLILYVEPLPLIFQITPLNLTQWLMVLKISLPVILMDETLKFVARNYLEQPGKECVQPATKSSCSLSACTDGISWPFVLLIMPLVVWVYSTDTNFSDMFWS

On to “2-(((4-methoxyphenyl)(p-tolyl)boryl)oxy)ethanamine [P16]”, for which, in the test on Jurkat cell SOCE [1] (setting [4]), the Ki (in general, the equilibrium dissociation constant of an inhibitor or competing ligand from its target) was determined as 3.1 ± 0.6 µM.
With “2-((bis(3,4-dimethylphenyl)boryl)oxy)ethanamine [P7]”, the Ki in the test on Jurkat cell SOCE [1] (setting [5]) was found to be 0.751 ± 0.097 µM.
Turning to “2-((bis(3,5-dimethylphenyl)boryl)oxy)ethanamine [P10]”, the “concentration of complete/full SOCE inhibition” value in the test on Jurkat cell SOCE [1] (Jurkat cells) stood at 3 µM. Further, the figures for the Ki with Jurkat cell SOCE [1] (setting [5]) and in the test with Jurkat cell SOCE [1] (setting [4]) were 0.484 ± 0.116 µM and around 0.5 µM, respectively.
For “2-((bis(3-methoxyphenyl)boryl)oxy)ethanamine [P4]”, in the test on Jurkat cell SOCE [1] (Jurkat cells), the “maximal inhibition of SOCE” value is listed as “≈ 80%”. In the test with Jurkat cell SOCE [1] (setting [4]), the Ki was 75 ± 21 µM.
For the compound “2-((bis(4-(tert-butyl)phenyl)boryl)oxy)ethanamine [P8]”, the “Ca2+ leak from the ER by an IP3-independent pathway” value in test [2] is reported as “strong Ca^2+ leak”. For the same compound, in the test on Jurkat cell SOCE [1] (setting [5]), the Ki came out at 0.35 ± 0.04 µM.
In the case of “2-((bis(4-methoxyphenyl)boryl)oxy)ethanamine [P2]”, in the test on Jurkat cell SOCE [1] (setting [4]), the Ki worked out at 3.5 ± 0.65 µM.
Take “2-((di(naphthalen-2-yl)boryl)oxy)ethanamine [P6]”: the Ki in the test on Jurkat cell SOCE [1] (setting [5]) was 0.275 ± 0.017 µM.
As for 2-((di-m-tolylboryl)oxy)ethanamine [P5], the Ki in the test with Jurkat cell SOCE [1] (setting [4]) came to 2.1 ± 0.6 µM.
Still for that read-out and setting: the same measure for 2-((di-p-tolylboryl)oxy)ethanamine [P3]: 3.5 ± 0.6 µM.
Regarding `CCCCc1ccc([B-]2(c3ccc(CCCC)cc3)[NH2+]CCO2)cc1` [P9], the inhibition at 100 µM at SERCA amounted to 52 ± 3%. For the same compound, on IP3R1, the “inhibition of IP3R activity” value was “did not significantly inhibit”. In addition, the Ki with Jurkat cell SOCE [1] (setting [5]) came out at 0.641 ± 0.103 µM.
Turning to `NCCOB(c1ccc2sccc2c1)c1ccc2sccc2c1` [P12, 2-(dibenzo[b]thiophen-5-ylboryloxy)ethanamine], in the test with Jurkat cell SOCE [1] (setting [5]), the Ki was determined as 0.374 ± 0.096 µM.
For `Clc1ccc([B-]2(c3ccc(Cl)cc3)[NH2+]CCO2)cc1` [P13], the Ki in the test on Jurkat cell SOCE [1] (setting [4]) was found to be 1.8 ± 0.1 µM.
On the same count and under the same terms, the same measure for `Fc1ccc([B-]2(c3ccc(F)cc3)[NH2+]CCO2)cc1` [P14]: 5.4 ± 0.3 µM.
Take `Cc1ccc([B-]2(c3ccc(C)c(Cl)c3)[NH2+]CCO2)cc1Cl` [P15]: the Ki in the test on Jurkat cell SOCE [1] (setting [5]) is 0.294 ± 0.074 µM; in the test with Jurkat cell SOCE [1] (setting [4]) it was around 0.3 µM.
As to `CC1(C)c2ccccc2-c2ccc([B-]3(c4ccc5c(c4)C(C)(C)c4ccccc4-5)[NH2+]CCO3)cc21` [P17], the Ki with Jurkat cell SOCE [1] (setting [4]) was above 100 µM. Besides, the “effect on SOCE amplitude” value with Jurkat cell SOCE [1] (concentrations >3 µM, higher concentrations disrupted the fluorescence) is given as “no effect”.
For the compound “((diphenylboryl)oxy)ethanamine [2-APB, reference compound]”, the “concentration of full SOCE block” value with Jurkat cell SOCE [3] is 20 to 30 µM. In addition, in the test on Jurkat cell SOCE [1] (5 µM, Jurkat cells), the “SOCE potentiation, % of control [Ca2+]cyt increase” value is above 200%. The SOCE inhibition entry in the test on Jurkat cell SOCE [1] (50 µM, Jurkat cells) is listed as “almost total inhibition”.
